Experimental findings from ChEMBL document CHEMBL2390950, “Dieckol, a SARS-CoV 3CL(pro) inhibitor, isolated from the edible brown algae Ecklonia cava” (Bioorg Med Chem, 2013) are described below.

In series [1] the target is Replicase polyprotein 1ab (Severe acute respiratory syndrome-related coronavirus) (UniProt P0C6X7).
Series [2] has the same target. Nature of the series: (§1) Inhibition of SARS coronavirus 3C-like protease cis-cleavage activity transfected in african green monkey Vero cells using SAVLQSGFRK as substrate after 5 hrs by luciferase reporter gene assay. In kind it is cell-based.
Series [3] has as its target T1, Replicase polyprotein 1ab (Severe acute respiratory syndrome-related coronavirus, UniProt P0C6X7). The description is as §1. In kind it is cell-based.
The next series has as its system Vero. Briefly: (§2) Cytotoxicity against african green monkey Vero cells assessed as cell death by MTT assay. Conditions: chlorocebus sabaeus, vero. Format: cell-based.
Series [4] is described as follows: Selectivity index, ratio of CC50 for african green monkey Vero cells to IC50 for SARS coronavirus 3C-like protease cis-cleavage activity transfected in african green monkey Vero cells. Format: functional.
Series [5] addresses Replicase polyprotein 1ab (Severe acute respiratory syndrome-related coronavirus) (UniProt P0C6X7). This is another data set of the same source.
For series [6], the target named is T1, Replicase polyprotein 1ab.
For series [7], the target named is T1, Replicase polyprotein 1ab. This is another data set of the same source.
In series [8] the target is Replicase polyprotein 1ab (Severe acute respiratory syndrome-related coronavirus) (UniProt P0C6X7). Nature of the series: (§3) Binding affinity to SARS coronavirus 3C-like protease by SPR analysis.
The target of series [9] is T1, Replicase polyprotein 1ab. The series is described as §3.
Series [10] has as its target Replicase polyprotein 1ab (Severe acute respiratory syndrome-related coronavirus) (UniProt P0C6X7). The source holds these as a separate data set.
Series [11] shares this target. This is another data set of the same source.
Series [12] shares this target. The source holds these as a separate data set.
Series [13] shares this target. Briefly: Inhibition of SARS coronavirus 3C-like protease cis-cleavage activity transfected in african green monkey Vero cells using SAVLQSGFRK as substrate at 200 uM after 5 hrs by luciferase reporter gene assay relative to control. Format: cell-based.
Series [14] in a line: as §2. Conditions: chlorocebus sabaeus, Vero cells. In kind it is cell-based.

Activity calls are given as the source filed them. No cut-off for these calls is given here. Where only a bound is given, the exact number is not on record here.

Take `Oc1cc(O)cc(Oc2c(O)cc(O)c3c2Oc2c(O)cc4oc5c(Oc6cc(O)cc(O)c6)c(O)cc(O)c5c4c2O3)c1` [PHLOROFUCOFUROECKOL A]: the inhibition result in [1] is “Active”. In addition, the inhibition entry in series [2] and in series [5] was “Dose-dependent effect” in each case. The IC50 came to 175 µM in series [3] and 16.7 µM in [6]. Besides, in the series with Vero, the CC50 was above 200 µM. In series [4], the “Ratio CC50/IC50” value is given as above 1.1. This molecule showed a Ki in [7] of 10.6 µM.
For `Oc1cc(O)cc(Oc2c(Oc3c(O)cc(O)cc3O)cc(O)c3c2Oc2c(O)cc(O)cc2O3)c1` [2-PHLOROECKOL], in [1], the inhibition result was “Active”. The inhibition result in series [2] and in series [5] was “Dose-dependent effect” throughout. In addition, the IC50 in series [3] came out at 112 µM; in series [6], 13.3 µM. Besides, in the series on Vero, the CC50 is above 200 µM. Besides, the “Ratio CC50/IC50” value in series [4] is given as above 1.8. The affinity in series [7], expressed as Ki, was 24 µM.
Regarding `Oc1cc(O)cc(O)c1` [PHLOROGLUCINOL], the CC50 in the series on Vero was above 200 µM. This molecule also returned an IC50 in series [6] above 200 µM.
For `Oc1cc(O)c(Oc2cc(O)cc(O)c2Oc2cc(O)cc(O)c2-c2c(O)cc(O)cc2O)c(O)c1` [FUCODIPHLOROETHOL G], in series [1], the inhibition entry was “Active”. Moreover, the inhibition entry in series [2] and in [5] was “Dose-dependent effect” each time. In addition, the IC50 in series [3] is 177 µM; in [6], 22.5 µM. Moreover, in the series with Vero, the CC50 is above 200 µM. Further, in series [4], the “Ratio CC50/IC50” value is recorded as above 1.1. The affinity in series [7] corresponds to a Ki of 63.5 µM.
Turning to `Oc1cc(O)cc(Oc2c(O)cc(O)c3c2Oc2c(O)cc(Oc4c(O)cc(Oc5c(O)cc(O)c6c5Oc5c(O)cc(O)cc5O6)cc4O)cc2O3)c1` [DIECKOL], the inhibition result in series [1] is “Active”. Further, the Activity result in series [8] was “Dose-dependent effect”. Besides, binding in series [9] was put at a Kd of 10.3 µM. Further, the inhibition result in series [2] and in [5] was “Dose-dependent effect” in each case. Further, the IC50 is 68.1 µM in [3] and 2.7 µM in [6]. The CC50 in the series on Vero was above 200 µM. Moreover, in [4], the “Ratio CC50/IC50” value is on record as above 2.9. Besides, the Ratio IC50 in series [10] turned out to be 60; in series [11], 50; in [12] it was 30. Besides, the Ki in series [7] turned out to be 2.4 µM.
As for `Oc1cc(O)cc(Oc2c(O)cc(O)c3c2Oc2c(O)cc(O)cc2O3)c1` [ECKOL], the inhibition result in [1] is “Active”. Further, in the series with Vero, the CC50 is above 200 µM. Moreover, the inhibition was 30% in series [13] and “Dose-dependent effect” in [5]. Also, in series [4], the “Ratio CC50/IC50” value is below 1. The molecule also yielded an IC50 in series [6] of 8.8 µM. The molecule further gave a Ki in series [7] of 8.2 µM.
Consider `Oc1cc(O)cc(Oc2c(O)cc(Oc3c(O)cc(O)cc3O)cc2O)c1` [TRIPHLORETHOL A], for which the CC50 in [14] is above 200 µM. In addition, the values for the inhibition in [13] and in series [5] were 15% and “Dose-dependent effect”, respectively. For the same molecule, the “Ratio CC50/IC50” value in [4] is given as below 1.
For the molecule `Oc1cc(O)cc(Oc2c(O)cc(O)c3c2Oc2c(O)cc(Oc4c(O)cc(O)cc4O)cc2O3)c1`, in [1], the inhibition result was “Active”. Moreover, the inhibition result in series [2] and in series [5] was “Dose-dependent effect” each time. The IC50 in [3] came to 112 µM; in [6] it was 42.1 µM. Besides, in the series with Vero, the CC50 is above 200 µM. In addition, the “Ratio CC50/IC50” value in series [4] is recorded as above 1.8. Moreover, in [7], the Ki worked out at 19.3 µM.
For `Oc1cc(O)c2oc3cc(O)c4oc5cc(O)cc(O)c5oc4c3oc2c1` [DIOXINODEHYDROECKOL], the inhibition result in series [2] and in series [5] was “Dose-dependent effect” throughout. For the same molecule, the IC50 in series [3] stood at 146 µM; in series [6] it was 158 µM. The CC50 in the series with Vero is above 200 µM. In addition, in series [4], the “Ratio CC50/IC50” value is recorded as above 1.4.
`COc1ccc([C@@H]2CC(=O)c3c(O)cc(O)cc3O2)cc1O` [HESPERETIN] displayed a Kd in series [9] of 24.5 µM.
